Test results reported in patent US20230265524A1, “IMMUNOGENIC RETROELEMENTS AND THEIR USE IN CANCER THERAPY” (UNIVERSITY HEALTH NETWORK, priority 2020, published 2023).

Tests used:
Type in all cases: cell-based, human
[1] = system: patient-derived CRC cells; assay: survival of patient-derived CRC cells, luminescence dose-response; settings: in vitro, ADAR1-knockdown vs wild-type patient-derived CRC cells
Description: A, Survival of wild-type ADAR1 (black) and ADAR1-knockdown (gray) patient-derived CRC cells after treatment with 5-AZA-CdR. Luminescence signal was normalized, and dose-response curves and EC50 values were calculated using a nonlinear regression curve fit.
Finally, we sought to investigate whether ADAR1 inhibition would synergize with epigenetic therapy to increase the anti-tumour response. […] To examine the potential synergy in vivo, we injected ADAR1^KDA/B or wildtype patient-derived xenograft CRC cells subcutaneously into immune-deficient NOD.Cg-Prkdc (NSG) mice, and treated the mice with 5-AZA-CdR or vehicle (PBS) (FIG. 12B and FIG. 13A). […] Thus, ADAR1 inhibition in human cancer cells profoundly sensitizes tumours to 5-AZA-CdR treatment in vivo.

[2] = system: patient-derived colorectal cancer cells (CRCs); assay: total stranded RNA-seq of repeat element expression after 5-AZA-CdR; settings: low doses of 5-AZA-CdR, 5 days, vs mock-treated
Description: A, Effect of 5-AZA-CdR on repeat element expression in patient-derived xenograft colorectal cancer cells after 5 days of treatment. Plots show log (fold change) for 5-AZA-CdR treated cells over mock-treated cells for anti-sense (y-axis) and sense (x-axis) transcripts of each SINE, LINE and ERV repeat element (CPM). […] The significance was determined as p≤0.05 and |log FC|≥1 at each strand.
To identify drug-induced immunogenic retroelements on a global scale, we examined the endogenous dsRNA formation in patient-derived colorectal cancer cells (CRCs) that were treated with low doses of 5-AZA-CdR, an FDA-approved DNMTi, or mock-treated. To this end, we performed total stranded RNA-seq and assessed repetitive elements transcribed in both strands, therefore likely to produce dsRNA species.

[3] = system: HT29 colorectal cancer cell lines; assay: ISG relative expression in HT29 cells; settings: HT29, ADAR1 KD vs WT, 300 nM for 5 days
Description: D) Interferon-stimulated genes (MDA5, ISG15 and DDX58) relative expression in ADAR1^WT and ADAR1^KD HT29 colorectal cancer cell lines treated with 300 nM 5-AZA-CdR for 5 days. Data are mean±s.e.m. (n=3 from three independent experiments). *P<0.05, **P<0.01, ***P<0.001, ****P<0.0001, Tukey-corrected two-way ANOVA.
Based on these findings, we hypothesized that ADAR1 depletion would synergize with the viral mimicry response induced by DNMTi treatment. To assess how ADAR1 depletion affects 5-AZA-CdR treated samples, we performed RNA-seq analyses in patient-derived CRC cells. […] As a molecular read-out of dsRNA pattern recognition activation, we measured MAVS aggregation in the mitochondrial fraction of cell lysates^34. […] Taken together, our findings establish that ADAR1 acts as a negative feedback loop, restricting the viral mimicry response induced by DNMTi treatment in cancer cells.

[4] = system: MDA5; assay: MDA5-protection assay followed by RNA sequencing
Description: A-C, Percentage of non-repeats and several families of Repetitive Elements in the total cytoplasmic fraction (‘Total CytoRNA’) and in the MDA5-protected fraction (‘MDA5-protected’) at the mock-treated baseline condition (A) and after 5-AZA-CdR treatment at 300 nM for 5 days, p<2.2e-16 (B). Treatment-induced immunogenic RNAs' refers to transcripts present in 5-AZA-CdR treated condition but not present in the baseline mock-treated condition (i.e. induced by the treatment), p<2.2e-16 (C). Each plot is the average percentage of two replicates. P-values represent the Fisher Exact test for enrichment of SINEs and depletion of non-repeats in immunogenic RNAs (5-AZA-CdR) and Treatment-induced immunogenic RNAs as compared to the MDA5-protected baseline immunogenic RNAs.
D-E, Counts of the expressed Alus in terms of the Log10 Fold change of their MDA5-protected expression over their Total CytoRNA expression. IR-Alus that are MDA5 dsRNA agonists have positive values on the x-axis. […] The color code represents Alus making Inverted Repeats pairs (gray) and Non-IR pairs (black) for Baseline immunogenic RNAs (n=187 Non-IR Alus and 1,602 IR-Alus) (D) and for the Treatment-induced immunogenic RNAs (n=992 Non-IR Alus and 5,199 IR-Alus) (E).
A, Venn-diagram showing the IR-Alu pairs at the Baseline (n=1,040), Immunogenic (5-AZA-CdR) (n=4,482) and Treatment-induced (n=3,687) conditions.
Viral mimicry response to epigenetic therapy is dependent on activation of the MDA5 pattern recognition receptor by endogenous dsRNAs^1,6,8. Therefore, to directly identify drug-induced immunogenic retroelements, we performed an MDA5-protection assay^19, followed by RNA sequencing. […] In contrast, only 1.71% of MDA5-protected RNAs in mock-treated samples were LTRs and 6.40% were LINEs (FIG. 2A). For DNMTi-treated samples, only 1.81% were LTRs and 7.56% were LINEs (FIG. 2B).
Then, to identify the immunogenic retroelements induced only by DNMTi treatment (“Treatment-Induced immunogenic RNAs”), we excluded those that were expressed in both the mock- and DNMTi-treated samples (FIG. 3A). Alu retroelements represented 88.72% of all MDA5-protected RNAs present only in DNMTi treated samples (“Treatment-Induced immunogenic RNAs”) (FIG. 2C). Treatment-induced immunogenic RNAs also included non-repeats (5.15%), LINEs (3.86%) and LTRs elements (1.37%) (FIG. 2C). Overall, our results reveal that while many dsRNA species are induced after DNMTi, Alu elements, but not LTRs/ERVs as previously assumed^1,2,4-6,20, are the major source of immunogenic dsRNA induced upon epigenetic therapy.
To uncover the molecular mechanisms of how repetitive elements generate immunogenic dsRNA, we examined all repeats in MDA5-protected transcripts and searched for repeat pairs within a 3 Kb window. […] Moreover, MDA5-protected RNA contained higher levels of IR-Alus compared to non-IR (direct repeat) Alus (FIG. 2D-E). The expression of baseline IR-Alus was maintained but not enhanced after 5-AZA-CdR treatment (FIG. 2D, FIG. 3D) while treatment-induced IR-Alu hybrids became highly expressed in the MDA5-protected RNA only after treatment with 5-AZA-CdR (FIG. 2E, FIG. 3E). […] Moreover, the majority of IR-Alu pairs were unidirectionally transcribed either in the sense (both repeats in the positive strand: “+/+”) or antisense (both repeats in the negative strand: “−/−”) direction in both baseline (FIG. 2H) and treatment-induced dsRNA (FIG. 2I).

[5] = MDA5-protected RNAs present only in DNMTi treated samples
[6] = MDA5-protected, induced by DNMTi

In the case of `Nc1ncn([C@H]2C[C@H](O)[C@@H](CO)O2)c(=O)n1` [5-AZA-CdR], the “reduction of EC50 by ADAR1 knock-down” value [1] is reported as “four to six-fold reduction”, the “sense and/or antisense transcription of repeat elements (LINEs, ERVs, SINEs)” value [2] is reported as “increased sense and/or antisense transcription of long interspersed nuclear elements (LINEs) and ERVs, but not short interspersed nuclear elements (SINEs)” and the “expression of IFN stimulated genes (ISGs)” value [3] is reported as “enhanced upon ADAR1 depletion”. For the same compound, the “number of IR-Alu pairs, Immunogenic (5-AZA-CdR) condition” value ([4]; Baseline n=1,040) was 4,482, the “LTRs in MDA5-protected RNAs” value ([4]; DNMTi-treated samples, mock-treated 1.71%) was 1.81% and the “LINEs in MDA5-protected RNAs” value ([4]; DNMTi-treated samples, mock-treated 6.40%) was 7.56%. The “Alus in the MDA5-protected RNA” value ([4]; Immunogenic RNAs (5-AZA-CdR), 300 nM for 5 days, mock-treated 53.03%) was 72.33%, the “Alu retroelements among Treatment-Induced immunogenic RNAs” value [4, 5] was 88.72% and the “LINEs among Treatment-induced immunogenic RNAs” value [4, 5] was 3.86%. For the same compound, the “LTRs elements among Treatment-induced immunogenic RNAs” value [4, 5] was 1.37%, the “non-repeats among Treatment-induced immunogenic RNAs” value [4, 5] was 5.15% and the “treatment-induced IR-Alu pairs within intergenic regions” value [4, 6] was 16%. The “treatment-induced IR-Alu pairs within introns” value [4, 6] was 70% and the “number of IR-Alu pairs, Treatment-induced condition” value ([4]; present after 5-AZA-CdR, not at baseline) was 3,687.
